Test results: PubChem BioAssay AID1259407 (Chemical Carcinogenesis Research Information System (CCRIS), 2018)
Active and inactive are the calls of the source. How the calls were made is not given here.

Test system: CCRIS mutagenicity, Ames/micronucleus/aberration tests
Assay: CCRIS mutagenicity studies

CC(=O)Oc1ccccc1C(=O)O
mutagenic call (End Point: IN VITRO MICRONUCLEUS, Test System: CHL/IU CELLS, Metabolic Activation: NONE): active; positive | mutagenic call (End Point: IN VITRO MICRONUCLEUS, Test System: RAT KIDNEY FIBROBLAST NRK-49F, Metabolic Activation: NONE): inactive; negative | mutagenic call (Test System: AMES SALMONELLA TYPHIMURIUM, Strain/Indicator: TA97, Metabolic Activation: HAMSTER, LIVER, S-9, AROCLOR 1254 (10%), Method: PREINCUBATION): inactive; negative | mutagenic call (Test System: AMES SALMONELLA TYPHIMURIUM, Strain/Indicator: TA97, Metabolic Activation: HAMSTER, LIVER, S-9, AROCLOR 1254 (30%), Method: PREINCUBATION): inactive; negative | mutagenic call (Test System: AMES SALMONELLA TYPHIMURIUM, Strain/Indicator: TA97, Metabolic Activation: NONE, Method: PREINCUBATION): inactive; negative | mutagenic call (Test System: AMES SALMONELLA TYPHIMURIUM, Strain/Indicator: TA97, Metabolic Activation: RAT, LIVER, S-9, AROCLOR 1254 (10%), Method: PREINCUBATION): inactive; negative | mutagenic call (Test System: AMES SALMONELLA TYPHIMURIUM, Strain/Indicator: TA97, Metabolic Activation: RAT, LIVER, S-9, AROCLOR 1254 (30%), Method: PREINCUBATION): inactive; negative | mutagenic call (Test System: AMES SALMONELLA TYPHIMURIUM, Strain/Indicator: TA98, Metabolic Activation: GUINEA PIG, LIVER, S-9, PCB, Method: PREINCUBATION): inactive; negative | mutagenic call (Test System: AMES SALMONELLA TYPHIMURIUM, Strain/Indicator: TA98, Metabolic Activation: HAMSTER, LIVER, S-9, AROCLOR 1254 (10%), Method: PREINCUBATION): inactive; negative | mutagenic call (Test System: AMES SALMONELLA TYPHIMURIUM, Strain/Indicator: TA98, Metabolic Activation: HAMSTER, LIVER, S-9, AROCLOR 1254 (30%), Method: PREINCUBATION): inactive; negative | mutagenic call (Test System: AMES SALMONELLA TYPHIMURIUM, Strain/Indicator: TA98, Metabolic Activation: HAMSTER, LIVER, S-9, AROCLOR 1254, Method: STANDARD PLATE): inactive; negative | mutagenic call (Test System: AMES SALMONELLA TYPHIMURIUM, Strain/Indicator: TA98, Metabolic Activation: HAMSTER, LIVER, S-9, PCB, Method: PREINCUBATION): inactive; negative | mutagenic call (Test System: AMES SALMONELLA TYPHIMURIUM, Strain/Indicator: TA98, Metabolic Activation: MOUSE, LIVER, S-9, AROCLOR 1254, Method: STANDARD PLATE): inactive; negative | mutagenic call (Test System: AMES SALMONELLA TYPHIMURIUM, Strain/Indicator: TA98, Metabolic Activation: MOUSE, LIVER, S-9, PCB, Method: PREINCUBATION): inactive; negative | mutagenic call (Test System: AMES SALMONELLA TYPHIMURIUM, Strain/Indicator: TA98, Metabolic Activation: NONE, Method: PREINCUBATION): inactive; negative | mutagenic call (Test System: AMES SALMONELLA TYPHIMURIUM, Strain/Indicator: TA98, Metabolic Activation: NONE, Method: STANDARD PLATE): inactive; negative | mutagenic call (Test System: AMES SALMONELLA TYPHIMURIUM, Strain/Indicator: TA98, Metabolic Activation: RAT, LIVER, S-9, AROCLOR 1254 (10%), Method: PREINCUBATION): inactive; negative | mutagenic call (Test System: AMES SALMONELLA TYPHIMURIUM, Strain/Indicator: TA98, Metabolic Activation: RAT, LIVER, S-9, AROCLOR 1254 (30%), Method: PREINCUBATION): inactive; negative | mutagenic call (Test System: AMES SALMONELLA TYPHIMURIUM, Strain/Indicator: TA98, Metabolic Activation: RAT, LIVER, S-9, AROCLOR 1254, Method: STANDARD PLATE): inactive; negative | mutagenic call (Test System: AMES SALMONELLA TYPHIMURIUM, Strain/Indicator: TA98, Metabolic Activation: RAT, LIVER, S-9, PCB, Method: PREINCUBATION): inactive; negative | mutagenic call (Test System: AMES SALMONELLA TYPHIMURIUM, Strain/Indicator: TA98, Metabolic Activation: RAT, LIVER, S-9, PCB, Method: STANDARD PLATE): inactive; negative | mutagenic call (Test System: AMES SALMONELLA TYPHIMURIUM, Strain/Indicator: TA100, Metabolic Activation: GUINEA PIG, LIVER, S-9, PCB, Method: PREINCUBATION): inactive; negative | mutagenic call (Test System: AMES SALMONELLA TYPHIMURIUM, Strain/Indicator: TA100, Metabolic Activation: HAMSTER, LIVER, S-9, AROCLOR 1254 (10%), Method: PREINCUBATION): inactive; negative | mutagenic call (Test System: AMES SALMONELLA TYPHIMURIUM, Strain/Indicator: TA100, Metabolic Activation: HAMSTER, LIVER, S-9, AROCLOR 1254 (30%), Method: PREINCUBATION): inactive; negative | mutagenic call (Test System: AMES SALMONELLA TYPHIMURIUM, Strain/Indicator: TA100, Metabolic Activation: HAMSTER, LIVER, S-9, AROCLOR 1254, Method: STANDARD PLATE): inactive; negative | mutagenic call (Test System: AMES SALMONELLA TYPHIMURIUM, Strain/Indicator: TA100, Metabolic Activation: HAMSTER, LIVER, S-9, PCB, Method: PREINCUBATION): inactive; negative | mutagenic call (Test System: AMES SALMONELLA TYPHIMURIUM, Strain/Indicator: TA100, Metabolic Activation: MOUSE, LIVER, S-9, AROCLOR 1254, Method: STANDARD PLATE): inactive; negative | mutagenic call (Test System: AMES SALMONELLA TYPHIMURIUM, Strain/Indicator: TA100, Metabolic Activation: MOUSE, LIVER, S-9, PCB, Method: PREINCUBATION): inactive; negative | mutagenic call (Test System: AMES SALMONELLA TYPHIMURIUM, Strain/Indicator: TA100, Metabolic Activation: NONE, Method: PREINCUBATION): inactive; negative | mutagenic call (Test System: AMES SALMONELLA TYPHIMURIUM, Strain/Indicator: TA100, Metabolic Activation: NONE, Method: STANDARD PLATE): inactive; negative | mutagenic call (Test System: AMES SALMONELLA TYPHIMURIUM, Strain/Indicator: TA100, Metabolic Activation: RAT, LIVER, S-9, AROCLOR 1254 (10%), Method: PREINCUBATION): inactive; negative | mutagenic call (Test System: AMES SALMONELLA TYPHIMURIUM, Strain/Indicator: TA100, Metabolic Activation: RAT, LIVER, S-9, AROCLOR 1254 (30%), Method: PREINCUBATION): inactive; negative | mutagenic call (Test System: AMES SALMONELLA TYPHIMURIUM, Strain/Indicator: TA100, Metabolic Activation: RAT, LIVER, S-9, AROCLOR 1254, Method: STANDARD PLATE): inactive; negative | mutagenic call (Test System: AMES SALMONELLA TYPHIMURIUM, Strain/Indicator: TA100, Metabolic Activation: RAT, LIVER, S-9, PCB, Method: PREINCUBATION): inactive; negative | mutagenic call (Test System: AMES SALMONELLA TYPHIMURIUM, Strain/Indicator: TA100, Metabolic Activation: RAT, LIVER, S-9, PCB, Method: STANDARD PLATE): inactive; negative | mutagenic call (Test System: AMES SALMONELLA TYPHIMURIUM, Strain/Indicator: TA1535, Metabolic Activation: HAMSTER, LIVER, S-9, AROCLOR 1254 (10%), Method: PREINCUBATION): inactive; negative | mutagenic call (Test System: AMES SALMONELLA TYPHIMURIUM, Strain/Indicator: TA1535, Metabolic Activation: HAMSTER, LIVER, S-9, AROCLOR 1254 (30%), Method: PREINCUBATION): inactive; negative | mutagenic call (Test System: AMES SALMONELLA TYPHIMURIUM, Strain/Indicator: TA1535, Metabolic Activation: HAMSTER, LIVER, S-9, AROCLOR 1254, Method: STANDARD PLATE): inactive; negative | mutagenic call (Test System: AMES SALMONELLA TYPHIMURIUM, Strain/Indicator: TA1535, Metabolic Activation: MOUSE, LIVER, S-9, AROCLOR 1254, Method: STANDARD PLATE): inactive; negative | mutagenic call (Test System: AMES SALMONELLA TYPHIMURIUM, Strain/Indicator: TA1535, Metabolic Activation: NONE, Method: PREINCUBATION): inactive; negative | mutagenic call (Test System: AMES SALMONELLA TYPHIMURIUM, Strain/Indicator: TA1535, Metabolic Activation: NONE, Method: STANDARD PLATE): inactive; negative | mutagenic call (Test System: AMES SALMONELLA TYPHIMURIUM, Strain/Indicator: TA1535, Metabolic Activation: RAT, LIVER, S-9, AROCLOR 1254 (10%), Method: PREINCUBATION): inactive; negative | mutagenic call (Test System: AMES SALMONELLA TYPHIMURIUM, Strain/Indicator: TA1535, Metabolic Activation: RAT, LIVER, S-9, AROCLOR 1254 (30%), Method: PREINCUBATION): inactive; negative | mutagenic call (Test System: AMES SALMONELLA TYPHIMURIUM, Strain/Indicator: TA1535, Metabolic Activation: RAT, LIVER, S-9, AROCLOR 1254, Method: STANDARD PLATE): inactive; negative | mutagenic call (Test System: AMES SALMONELLA TYPHIMURIUM, Strain/Indicator: TA1537, Metabolic Activation: HAMSTER, LIVER, S-9, AROCLOR 1254, Method: STANDARD PLATE): inactive; negative | mutagenic call (Test System: AMES SALMONELLA TYPHIMURIUM, Strain/Indicator: TA1537, Metabolic Activation: MOUSE, LIVER, S-9, AROCLOR 1254, Method: STANDARD PLATE): inactive; negative | mutagenic call (Test System: AMES SALMONELLA TYPHIMURIUM, Strain/Indicator: TA1537, Metabolic Activation: NONE, Method: STANDARD PLATE): inactive; negative | mutagenic call (Test System: AMES SALMONELLA TYPHIMURIUM, Strain/Indicator: TA1537, Metabolic Activation: RAT, LIVER, S-9, AROCLOR 1254, Method: STANDARD PLATE): inactive; negative | mutagenic call (Test System: AMES SALMONELLA TYPHIMURIUM, Strain/Indicator: TA1537, Metabolic Activation: RAT, LIVER, S-9, PCB, Method: STANDARD PLATE): inactive; negative | mutagenic call (Test System: AMES SALMONELLA TYPHIMURIUM, Strain/Indicator: TA1538, Metabolic Activation: HAMSTER, LIVER, S-9, AROCLOR 1254, Method: STANDARD PLATE): inactive; negative | mutagenic call (Test System: AMES SALMONELLA TYPHIMURIUM, Strain/Indicator: TA1538, Metabolic Activation: MOUSE, LIVER, S-9, AROCLOR 1254, Method: STANDARD PLATE): inactive; negative | mutagenic call (Test System: AMES SALMONELLA TYPHIMURIUM, Strain/Indicator: TA1538, Metabolic Activation: NONE, Method: STANDARD PLATE): inactive; negative | mutagenic call (Test System: AMES SALMONELLA TYPHIMURIUM, Strain/Indicator: TA1538, Metabolic Activation: RAT, LIVER, S-9, AROCLOR 1254, Method: STANDARD PLATE): inactive; negative | mutagenic call (Test System: AMES SALMONELLA TYPHIMURIUM, Strain/Indicator: TA1538, Metabolic Activation: RAT, LIVER, S-9, PCB, Method: STANDARD PLATE): inactive; negative | mutagenic call (Test System: E. COLI, Strain/Indicator: WP2 UVRA, Metabolic Activation: HAMSTER, LIVER, S-9, AROCLOR 1254, Method: STANDARD PLATE): inactive; negative | mutagenic call (Test System: E. COLI, Strain/Indicator: WP2 UVRA, Metabolic Activation: HAMSTER, LIVER, S-9, Method: STANDARD PLATE): inactive; negative | mutagenic call (Test System: E. COLI, Strain/Indicator: WP2 UVRA, Metabolic Activation: MOUSE, LIVER, S-9, AROCLOR 1254, Method: STANDARD PLATE): inactive; negative | mutagenic call (Test System: E. COLI, Strain/Indicator: WP2 UVRA, Metabolic Activation: MOUSE, LIVER, S-9, Method: STANDARD PLATE): inactive; negative | mutagenic call (Test System: E. COLI, Strain/Indicator: WP2 UVRA, Metabolic Activation: NONE, Method: STANDARD PLATE): inactive; negative | mutagenic call (Test System: E. COLI, Strain/Indicator: WP2 UVRA, Metabolic Activation: RAT, LIVER, S-9, AROCLOR 1254, Method: STANDARD PLATE): inactive; negative | mutagenic call (Test System: E. COLI, Strain/Indicator: WP2 UVRA, Metabolic Activation: RAT, LIVER, S-9, PCB, Method: STANDARD PLATE): inactive; negative | mutagenic call (Test System: E. COLI, Strain/Indicator: WP2 UVRA, Metabolic Activation: RAT, LIVER, S-9, Method: STANDARD PLATE): inactive; negative
